According to US20130011473A1, “Preparation Method Of The Solid Formulation Of Clopidogrel Bisulfate” (priority 2010, published 2013):
Counter-ions that a name gives are not always drawn. Like-named read-outs stand apart in the source and are kept apart here.

Assays:
phosphodiesterase = settings: cited from earlier work

Structure (SMILES)	angle of repose (after being mixed with Colloidal Silicon Dioxide)	angle of repose (as is)	phosphodiesterase activity (phosphodiesterase)
COC(=O)[C@H](c1ccccc1Cl)N1CCc2sccc2C1 [Clopidgrel salt, methyl(+)-(S)-α(2-chlorophenyl)-6,7-dihydrothieno[3,2-c]pyridine-5(4H)-acetate sulfate (1:1)]	40	greater than 45	–
COC(=O)[C@H](c1ccccc1Cl)N1CCc2sccc2C1 [Clopidogrel]	–	–	did not inhibit
